Assay results published in patent US20230391817A1, “5ALPHA-HYDROXY-6BETA-[2-(1-H-IMIDAZOL-4-YL)-ETHYLAMINO]-CHOLESTAN-3BETA-OL ANALOGUES AND PHARMACEUTICAL COMPOSITIONS COMPRISING SAME FOR USE IN THE TREATMENT OF CANCER” (priority 2020, published 2023).
Read-outs that look alike come from different tables or passages of the source.

How the values were obtained:
Assay type in all cases: cell-based
[1] = tested on: murine 4T1 mammary tumor cells; assay: Cell viability of 4T1 cells, LDH; conditions: Mus musculus, 4T1, LDH, 48 h
Protocol: Cell viability tests were performed on murine 4T1 mammary tumor cells characterized as triple negative (HER2-, ER-, PR-).
For this experiment, a cell culture medium was prepared. The culture medium consisted of Dulbecco's Modified Eagle Medium (DMEM, sold by Westburg as LO BE12-604F), comprising 4.5 g/L glucose with L-glutamine, to which 10% fetal calf serum (FCS) and 50 U/ml penicillin/streptomycin are added. The 4T1 cells were introduced into this culture medium.
96-well plates were seeded with 2000 4T1 cells per well. After 72 hours (h) of culture under normal condition, i.e. in an incubator at 37° C. at […], the 4T1 cells were treated for 48 h with DX101, DX103, DX111, DX123, DX125, DX127 and DX129 at 100 nM, 1 μM, 2.5 μM and 10 μM. A control condition (CTL) is also performed in parallel using the previously described protocol without treatment with the molecules DX101, DX103, DX111, DX123, DX125, DX127 or DX129.
For the second method, the percentage of viability is determined by assaying the activity of the enzyme LDH (lactate dehydrogenase) in cell supernatants using the non radioactive cytotoxicity assay kit (Promega). LDH is an enzyme released in the supernatant of dead cells. The higher the LDH activity in the supernatant, the greater the cell death. In this enzyme assay, the LDH released converts a violet tetrazolium salt to a red colored formazan, absorbing at 490 nm. The intensity of the red color is proportional to the number of dead cells. After 48 h of treatment, the supernatants are transferred to a new 96-well plate and incubated for 30 minutes in the presence of substrate mix at room temperature. The reaction is stopped with stop solution reagent and the absorbance is determined at 490 nm. The percentage of cell death is determined here using a 100% maximum LDH activity control (made from untreated cells incubated in the presence of lysis solution for 45 minutes at 37° C. just prior to addition of the substrate mix), and the cell viability in each well is then deduced from this percentage. The IC50 is then determined as explained in the preceding paragraph.

[2] = tested on: BT-474 human mammary tumor cells; assay: Cell viability of BT-474 cells, MTT; conditions: for Mean LogIC50 (±SEM) / IC50: BT-474, MTT, 48 h; for Mean LogIC50 (±SEM): log of IC50 in μM; for IC50: Homo sapiens
Protocol: The cell viability is measured by three different methods. For the first method, MTT labeling is performed at 48 hours. This test is based on the use of the tetrazolium salt MTT (3-(4,5-dimethylthiazol-2-yl)-2,5-diphenyltetrazolium bromide). Tetrazolium is reduced by mitochondrial succinate dehydrogenase in active live cells to formazan, a purple colored precipitate. The amount of precipitate formed is proportional to the amount of live cells but also to the metabolic activity of each cell. Thus, a simple determination of the optical density at 550 nm by spectroscopy makes it possible to determine the relative amount of live and metabolically active cells. After 48 hours, the medium is aspirated, and the cells are incubated with MTT (0.5 mg/ml in culture medium) for about 3 hours. The MTT solution is aspirated and the purple crystals are dissolved in dimethyl sulfoxide (DMSO). The OD (optical density) is measured at 550 nm. The percentage of viability is then determined in each well against the CTL and the IC50 (concentration at which 50% of cells remain alive) is determined for each molecule with the Prism software using a nonlinear regression curve (log(inhibitor) vs. Response).
Cell viability tests were also performed on BT-474 human mammary tumor cells (characterized as triple positive HER2+, ER+, PR+). The BT-474 cells were in a cell culture medium identical to the previous example and seeded in 24-well plates at 70 000 cells per well for cell viability determination using trypan blue, or in 96-well plates at 13 000 cells per well for cell viability determination using the MTT or LDH assay. After 96 hours (h) of culture under normal conditions, i.e. in an incubator at 37° C. with […], BT-474 cells were treated for 48 h with DX101, DX103, DX105, DX111, DX123 and DX127 at 100 nM, 1 μM, 2.5 μM and 10 μM. A control is also performed using the protocol described previously without treatment with DX101, DX103, DX105, DX111, DX123 and DX127.
After a 10-minute trypsin digestion at 37° C., the cell survival was also quantified by means of a trypan blue test with automatic counting using the Biorad TC20 machine (TC20™ Automated Cell Counter). The trypan blue test is based on the integrity of cell membranes, which is disrupted in the dead cells. Trypan blue stains dead cells blue. The Biorad TC20 cell counter counts the proportion of blue and non-blue cells, and reports the percentage of cells. The percentage of viability is then determined in each well relative to the untreated cells and the IC50 is determined as explained in the preceding example. Also, the percentage viability of the BT-474 cells was determined using the MTT and LDH assay, performed as described in the preceding example.

MCF-7 breast tumor cells = assay: Microscope observation of treated MCF-7 cells
Protocol: A cell viability test was performed on MCF-7 (Michigan Cancer Foundation-7) breast tumor cells […] (ER(+) cells).
The MCF-7 cells are in a cell culture medium identical to that of Example 5 and are seeded in 12-well plates at 50 000 cells per well. 24 hours after seeding, the cells are treated with vehicle solvate comprising water and ethanol with a 1% o ratio of ethanol, 3β-fluoro-5α-hydroxy-6β-[2-(1H-imidazol-4-yl)ethylamino]cholestane, and 5α-hydroxy-6β-[2-(1H-imidazol-4-yl)ethylamino]cholestan-3β-ol at 1, 2.5 or 5 μM. The cells are observed under an inverted microscope and photographed via the microscope camera at 24 h and 48 h. The morphological changes in the cells at 1 μM are very small. […] The effects are more marked at 2.5 μM and 5 μM with an increase in the number of dead cells. […] After 24 h of treatment with 3β-fluoro-5α-hydroxy-6β-[2-(1H-imidazol-4-yl)ethylamino]-cholestane at 5 μM, 99% of the observed cells are supernatant, reflecting cell death, and 1% of the cells are adherent and show white vesicles. […] The cytostatic effect is illustrated by an inhibition of cell proliferation.

[3] = log of IC50 in μM, read-out: Mean LogIC50 (±SEM) (converted)

Compound	IC50 [1, 3] [µM]	IC50 ([1]; read-out: IC50) [µM]	Mean LogIC50 (±SEM) [2]	IC50 [2] [µM]	morphological changes in the cells (MCF-7 breast tumor cells; 1 μM, 24 h)	activity compared with DX101 ([2]; BT-474, Tables 2a, 2b and 2c (MTT, LDH, Trypan Blue))	morphological changes in the cells (MCF-7 breast tumor cells; 2.5 μM, 24 h)	cytostatic effect compared with 24 h (MCF-7 breast tumor cells; 2.5 μM, 48 h)	cells that are adherent and show white vesicles (MCF-7 breast tumor cells; 5 μM, 24 h) [%]	observed cells that are supernatant (cell death) (MCF-7 breast tumor cells; 5 μM, 24 h) [%]	morphological changes in the cells (MCF-7 breast tumor cells; 5 μM, 48 h)	effect compared with 5α-hydroxy-6β-[2-(1H-imidazol-4-yl)ethylamino]cholestan-3β-ol (MCF-7 breast tumor cells; 24 h of observation)	effect compared with 5α-hydroxy-6β-[2-(1H-imidazol-4-yl)ethylamino]cholestan-3β-ol (MCF-7 breast tumor cells; 48 h of observation)
CC(C)CCC[C@@H](C)[C@H]1CC[C@H]2[C@@H]3C[C@@H](NCCc4c[nH]cn4)[C@@]4(O)C[C@@H](O)CC[C@]4(C)[C@H]3CC[C@]12C [DX101, 5α-hydroxy-6β-[2-(1H-imidazol-4-yl)ethylamino]cholestan-3β-ol, reference compound]	3.24	3.24	0.88 ± 0.03	7.53	Only a few white vesicles								
CC(C)CCC[C@@H](C)[C@H]1CC[C@H]2[C@@H]3C[C@@H](NCCc4c[nH]cn4)[C@@]4(O)C[C@@H](F)CC[C@]4(C)[C@H]3CC[C@]12C [DX111, 3β-fluoro-5α-hydroxy-6β-[2-(1H-imidazol-4-yl)ethylamino]cholestane]	1.86	1.88	0.95 ± 0.10	8.94	Only a few white vesicles	similar	numerous white vesicles and detached cells	stronger cytostatic effect	1	99	all the cells are supernatant	greater or equal effect	similar
